Here are results for 16 molecules from patent US20240262795A1, “PYRAZINE COMPOUNDS AS INHIBITORS OF FLT3” (Biomea Fusion, Inc., priority 2021, published 2024).

Each structure is given as a SMILES string. pIC50: −log10 of the molar value.

In this assay the target is T1, FLT3-ITD (Homo sapiens, UniProt P36888, DUP595-601).
T1 construct: purchased Signalchem F-12-12CG-10
T1 sequence (P36888 with tags, fused parts or gaps DUP595-601 limits assumed): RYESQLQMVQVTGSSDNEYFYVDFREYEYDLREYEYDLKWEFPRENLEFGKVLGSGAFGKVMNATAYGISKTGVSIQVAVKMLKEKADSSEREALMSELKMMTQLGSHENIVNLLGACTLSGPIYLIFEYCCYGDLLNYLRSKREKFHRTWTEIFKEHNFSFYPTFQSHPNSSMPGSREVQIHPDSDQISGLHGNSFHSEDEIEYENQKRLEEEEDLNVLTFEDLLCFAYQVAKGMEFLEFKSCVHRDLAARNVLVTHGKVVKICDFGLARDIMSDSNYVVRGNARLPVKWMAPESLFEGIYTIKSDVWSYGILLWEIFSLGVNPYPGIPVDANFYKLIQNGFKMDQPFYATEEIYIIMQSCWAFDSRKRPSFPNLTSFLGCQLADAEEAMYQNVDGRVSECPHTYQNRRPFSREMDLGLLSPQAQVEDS
In words: FLT3-ITD Lance Ultra TR-FRET kinase assay. The assay is classed as biochemical. Summed up:
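Lance Ultra TR-FRET with 50 nM ULight-JAK-1 (Tyr1023) peptide, Eu-anti-phosphotyrosine (PT66) detection, in HEPES pH 7.5 buffer at 23° C, 30 min enzyme/compound preincubation. WT: 0.5 nM enzyme, 100 μM ATP, 30 min; ITD: 0.0625 nM, 50 μM ATP, 60 min. IC50 by four-parameter fit of 11-point 3× dilutions.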
Usually pIC50 stands for the negative decadic logarithm of the IC50, by convention in mol/L. Molecule `CCc1nc(C(N)=O)c(Nc2cccc(CCNC(=O)CN(C)C(=O)/C=C/CN3CCC3)c2)nc1N(C)CC` [Compound 516A, (E)-3-((3-(2-(2-(4-(azetidin-1-yl)-N-methylbut-2-enamido)acetamido)ethyl)phenyl)amino)-6-ethyl-5-(ethyl(methyl)amino) pyrazine-2-carboxamide] showed a negative-log IC50 (pIC50) of 9.70 to 10.00. For the molecule `CCc1nc(C(N)=O)c(Nc2ccnc(CCNC(=O)[C@H](C)N(C)C(=O)/C=C/CN(C)C)c2)nc1C1CC1` [Compound 310, (S,E)-5-cyclopropyl-3-((2-(2-(2-(4-(dimethylamino)-N-methylbut-2-enamido)propanamido)ethyl)pyridin-4-yl)amino)-6-ethylpyrazine-2-carboxamide], the negative logarithm of the IC50 (pIC50) was 9.00 to 9.30. `Cc1nc(C(N)=O)c(Nc2cccc(CCNC(=O)[C@H](C)N(C)C(=O)/C=C/CN(C)C)c2)nc1N(C)C(C)C` [Compound 232, (S, E)-3-((3-(2-(2-(4-(dimethylamino)-N-methylbut-2-enamido)propanamido)ethyl)phenyl)amino)-5-(isopropyl (methyl)amino)-6-methylpyrazine-2-carboxamide] gave a pIC50 of 9.00 to 9.30. Under `CCc1nc(Nc2cccc([C@@H](C)CNC(=O)CN(C)C(=O)/C=C/CN3CCC3)c2)c(C(N)=O)nc1CC` [Compound 508, (R, E)-3-((3-(1-(2-(4-(azetidin-1-yl)-N-methylbut-2-enamido)acetamido)propan-2-yl)phenyl)amino)-5,6-diethylpyrazine-2-carboxamide] stands 9.00 to 9.30; under `CCc1nc(C(N)=O)c(Nc2cccc(CCNC(=O)[C@H](C)N(C)C(=O)/C=C/CNC)c2)nc1N(C)C(C)C` [Compound 307, (S,E)-6-ethyl-5-(isopropyl(methyl)amino)-3-((3-(2-(2-(N-methyl-4-(methylamino)but-2-enamido)propanamido)ethyl)phenyl)amino)pyrazine-2-carboxamide], 9.30 to 9.70.

Regarding `CCc1nc(C(N)=O)c(Nc2cccc([C@@H](C)CNC(=O)CN(C)C(=O)/C=C/CN3CCC3)c2)nc1C1CC1` [Compound 506, (R,E)-3-((3-(1-(2-(4-(azetidin-1-yl)-N-methylbut-2-enamido)acetamido)propan-2-yl)phenyl)amino)-5-cyclopropyl-6-ethylpyrazine-2-carboxamide], the pIC50 was 9.30 to 9.70. Under `CCc1nc(C(N)=O)c(Nc2cccc(CCNC(=O)CN(C)C(=O)/C=C/CN3CCC3)c2)nc1OC(C)C` [Compound 603, (E)-3-((3-(2-(2-(4-(azetidin-1-yl)-N-methylbut-2-enamido)acetamido)ethyl)phenyl)amino)-6-ethyl-5-isopropoxypyrazine-2-carboxamide] stands 9.30 to 9.70; under `CCOc1nc(Nc2cccc(CCNC(=O)CN(C)C(=O)/C=C/CN3CCC3)c2)c(C(N)=O)nc1CC` [Compound 602, (E)-3-((3-(2-(2-(4-(azetidin-1-yl)-N-methylbut-2-enamido)acetamido)ethyl)phenyl)amino)-5-ethoxy-6-ethylpyrazine-2-carboxamide], 9.30 to 9.70.

For `CCc1nc(C(N)=O)c(Nc2cc(F)cc(CCNC(=O)CN(C)C(=O)/C=C/CN3CCC3)c2)nc1C1CC1` [Compound 516, (E)-3-((3-(2-(2-(4-(azetidin-1-yl)-N-methylbut-2-enamido)acetamido)ethyl)-5-fluorophenyl)amino)-5-cyclopropyl-6-ethylpyrazine-2-carboxamide], the pIC50 was 9.70 to 10.00.

`CCCc1nc(Nc2cccc([C@@H](C)CNC(=O)CN(C)C(=O)/C=C/CN3CCC3)c2)c(C(N)=O)nc1CC` [Compound 507, (R,E)-3-((3-(1-(2-(4-(azetidin-1-yl)-N-methylbut-2-enamido)acetamido)propan-2-yl)phenyl)amino)-6-ethyl-5-propylpyrazine-2-carboxamide] showed a negative logarithm of the IC50 (pIC50) of 9.30 to 9.70. Under `CCc1nc(C(N)=O)c(Nc2cccc(CCNC(=O)CN(C)C(=O)/C=C/CN(C)C)c2)nc1N(C)CC` [Compound 252, (E)-3-((3-(2-(2-(4-(dimethylamino)-N-methylbut-2-enamido)acetamido)ethyl)phenyl)amino)-6-ethyl-5-(ethyl (methyl)amino) pyrazine-2-carboxamide] stands 9.70 to 10.00.

As to `CCc1nc(C(N)=O)c(Nc2cccc(CCNC(=O)[C@H](C)N(C)C(=O)/C=C/CN(C)C)c2)nc1NC(C)C` [Compound 205, (S,E)-3-((3-(2-(2-(4-(dimethylamino)-N-methylbut-2-enamido)propanamido)ethyl)phenyl)amino)-6-ethyl-5-(isopropylamino)pyrazine-2-carboxamide], the pIC50 is 9.70 to 10.00.

`CCc1nc(C(N)=O)c(Nc2cccc(CCNC(=O)[C@H](C)N(C)C(=O)/C=C/CN(C)C)c2)nc1N(C)C(C)C` [Compound 204, (S,E)-3-((3-(2-(2-(4-(dimethylamino)-N-methylbut-2-enamido)propanamido)ethyl)phenyl)amino)-6-ethyl-5-(isopropyl(methyl)amino)pyrazine-2-carboxamide] had a negative-log IC50 (pIC50) of 9.70 to 10.00. Next, `CCc1nc(C(N)=O)c(Nc2cccc([C@@H](C)CNC(=O)CN(C)C(=O)/C=C/CN3CCC3)c2)nc1N(C)CC` [Compound 518, (R,E)-3-((3-(1-(2-(4-(azetidin-1-yl)-N-methylbut-2-enamido)acetamido)propan-2-yl)phenyl)amino)-6-ethyl-5-(ethyl(methyl)amino)pyrazine-2-carboxamide]: 9.70 to 10.00. Next, `Cc1nc(C(N)=O)c(Nc2cccc(CCNC(=O)CN(C)C(=O)/C=C/CN(C)C)c2)nc1N(C)C(C)C` [Compound 250, (E)-3-((3-(2-(2-(4-(dimethylamino)-N-methylbut-2-enamido)acetamido)ethyl)phenyl)amino)-5-(isopropyl(methyl)amino)-6-methylpyrazine-2-carboxamide]: 9.30 to 9.70.

`CCc1nc(C(N)=O)c(Nc2ccnc(CCNC(=O)[C@H](C)N(C)C(=O)/C=C/CN(C)C)c2)nc1N(C)C(C)C` [Compound 605, (S, E)-3-((2-(2-(2-(4-(dimethylamino)-N-methylbut-2-enamido)propanamido)ethyl)pyridin-4-yl)amino)-6-ethyl-5-(isopropyl (methyl)amino) pyrazine-2-carboxamide] had a negative logarithm of the IC50 (pIC50) of 9.30 to 9.70.
